Measured values from patent US6984640B1, “Antiparasitic artemisinin derivatives (endoperoxides)” (Bayer Aktiengesellschaft, priority 1998, dated 2006).

Assays:
Type in all cases: cell-based
[1] = tested on: Neospora caninum; test: Screening against Neospora caninum cell cultures in vitro (VERO or ED host cells); design: key: 0 = no effect monolayer completely destroyed; 1 = weak effect monolayer partly destroyed, parasite clumps can be seen; 2 = full effect monolayer intact, no tachyzoites observable; T = cytotoxic cells are dead, lysed; conditions: microscopic evaluation 4 days after treatment
Description: Screening was conducted in 96-well plates (Falcon 3872). A monolayer of host cells (VERO or ED) were placed on a cell culture plate. Non-infected mono-layers of cells were cultured in two 50 ml tissue culture bottles ([…] cell culture area). The cell layer was detached with trypsin-EDTA (5 ml. Gibco 45300-019) in a CO2-culture cupboard at 37° C. After 10 minutes, most of the cells were detached. The cells were transferred with a 5 ml pipette into a 50 ml centrifuge tube (Greiner, B769331) containing about 1 ml warmed fetal calf serum. After centrifugation for 5 minutes at 1500 rpm (Varifuge 3.0, Heraeus), the liquid was removed and the cell pellet suspended in RPMI medium (100 ml, 95% RPMI 1640, 2% FCS, 1% L-glutamine, 1% sodium hydrogen carbonate, 1% penicillin/streptomycin). The cell suspension was pipetted into six 96-well plates at 150 μl per well. The coated cell culture plates were placed in an incubation cupboard at 37° C. under 5% CO2 for 24 hours. The cells were then infected with Neospora caninum tachyzoites at a concentration of 48,000 tachyzoites per well. This was followed by incubation at 37° C. under 5% CO2 for 24 hours.
The test compounds (0.5-1.5 mg) were weighed into 1.5 ml eppendorf vessels and dissolved in 1 ml dimethyl sulphoxide, corresponding to a dilution of about 1×10^−3 g ml^−1. The medium used for further dilution consisted of 87% RPMI 1640, 10% FCS, 1% L-glutamine, 1% sodium hydrogen carbonate, 1% penicillin/streptomycin. In the first screening, concentrations of […], […] and 10^−7 g ml^−1 were used. The diluted preparations were then transferred to the cell culture plates at a volume of 150 μl per well after 24 hour infection with Neospora caninum. For the first row, untreated medium was used; this row contained infected and uninfected cells as controls. The cell plate was incubated at 37° C. under 5% CO2 for 5 days. Microscopic evaluation was conducted 4 days after treatment and 5 days after infection at a magnification of 25×10 in an inverse microscope according to the following evaluation scheme.

[2] = tested on: Eimeria tenella; test: Screening against Eimeria tenella cell cultures in vitro (chick kidney cells); design: key: 3 = very active no intact parasites/well; 2 = active 1-6 parasites per well; 1 = weakly active up to 1 intact schizont/optical field of vision; 0 = inactive >1 intact schizont/optical field of vision; T = cytotoxic host cells are dead; conditions: day 5 post infection
Description: Cells from kidneys of 19 day old chicks are cultured as monolayers in 96-well plates (Falcon 3872) in a medium of Hanks lactalbumine hydrolysate, 5% fetal calf serum, 1% glutamine and 1% non-essential amino acids. After two days at 42° C. under 5% CO2, the culture was infected with excised sporozoites of Eimeria tenella at about […] per well. Test compounds were dissolved in DKSO and diluted with culture medium to a maximum end concentration of 10 μg ml^−1. The dilution steps were 1:10. On day 5 post infection, the cultures were evaluated under a microscope at 100-fold magnification and the condition of the host cells and the amount of intact schizonts and free merozoites was determined.

[3] = tested on: Plasmodium falciparum W2 strain (chloroquine resistant); test: In vitro screening against Plasmodium falciparum, 3H-hypoxanthine incorporation, W2 strain; conditions: for In vitro activity: (IC10) / In vitro activity: IC50 / In vitro activity: IC90: 66 hours incubation
Description: (§1) Two parasite strains—W2 resistant to chloroquine, and D6 sensitive to chloroquine but resistant to mefloquine were used. In Table IV below, the best compounds should show no cross resistance between the two strains.
(§2) The assay relies on incorporation of radiolabelled hypoxanthine by the parasite and inhibition of incorporation is attributed to activity of known or candidate antimalarial drugs. For each assay, proven antimalarials such as chloroquine, mefloquine, quinine, artemisinin and pyrimethamine were used as controls. The incubation period was 66 hours, and the starting parasitemia was 0.2% with 1% hematocrit. The medium was an RPMI-1640 culture with no folate or p-aminobenzoic acid. Albumax rather than 10% normal heat inactivated human plasma was used as, with Albumax, less protein binding is observed, and compounds elicit slightly higher activities in this model. If a compound was submitted with no prior knowledge of activity, it was dissolved directly in dimethyl sulphoxide (DMSO), and diluted 400 fold with complete culture medium. The unknown compound was started at a maximum concentration of 50,000 ng ml^−1 and sequentially diluted 2-fold for 11 times to give a concentration range of […]. These dilutions were performed automatically by a Biomek 1000 Liquid Handling System in 96-well microtiter plates. The diluted drugs were then transferred to test plates, 200 μl of parasitized erythrocytes were added, and incubated at 37° C. in a controlled environment of 5% CO2, 5% O2 and 90% N2. After 42 hours, 25 μl of ^3H-hypoxanthine was added, and the plates incubated for an additional 24 hours. After 66 hours, the plates were frozen at −70° C. to lyse the red cells, and then thawed and harvested onto glass fiber filter mats in a 96-well harvester. The filter mats were then counted in a scintillation counter. For each drug, the concentration response profile was determined and 50%, 90% and 10% inhibitory concentrations (IC50 IC90 and IC10) were determined by a non-linear logistic dose response analysis program.
(§3) A prescreen format can be used wherein a 3-dilution assay may be used to determine activity at high medium or low concentrations. The concentrations were selected as 50,000, 500 and 50 ng ml^−1. These were performed in duplicate on a 96-well format plate with 14 test compounds and one known (standard) compound per plate. The system was automated with a Biomek diluter for mixing and diluting the drugs, and adding drugs and parasites to a test plate. In the prescreen format, if the ANALYSIS FIELD (AP) has a “<”, then the compound was “very active” and the IC values are most likely to be below the last dilution value (in nanograms/ml), which is listed next to AF. In most cases, these compounds were run again at lower starting concentration to determine the true IC value. If the AF has a “>”, then the IC value is greater than the prescreen dilution value; thus “AF>250” means that the IC value is greater than 250 ng ml^−1 and no further screening is carried out. In such cases, values of 0.00 are entered for IC values.

[4] = tested on: Plasmodium falciparum D6 strain (chloroquine sensitive); test: In vitro screening against Plasmodium falciparum, 3H-hypoxanthine incorporation, D6 strain; conditions: for In vitro activity: (IC10) / In vitro activity: IC50 / In vitro activity: IC90: 66 hours incubation
Description: as §1, §2, §3

[5] = prescreen 3-dilution assay, 0.00 entered for IC values

| SMILES | Evaluation of effect against Neospora caninum ([1]; Dose 10^−6 g/ml) | Evaluation of effect against Neospora caninum ([1]; Dose 10^−7 g/ml) | Evaluation of effect against Neospora caninum ([1]; Dose 10^−8 g/ml) | Effectiveness rating against Eimeria tenella ([2]; Dose 10^−5 g/ml) | Effectiveness rating against Eimeria tenella ([2]; Dose 10^−6 g/ml) | Effectiveness rating against Eimeria tenella ([2]; Dose 10^−7 g/ml) | Effectiveness rating against Eimeria tenella ([2]; Dose 10^−8 g/ml) | In vitro activity: (IC10) [3] | In vitro activity: IC50 [3] | In vitro activity: IC90 [3] | In vitro activity: (IC10) [4] | In vitro activity: IC50 [4] | In vitro activity: IC90 [4] | Evaluation of effect against Neospora caninum ([1]; Dose 10^−5 g/ml) | ANALYSIS FIELD (AF): bound on the IC values in prescreen format [3, 5] | ANALYSIS FIELD (AF): bound on the IC values in prescreen format [4, 5] |
| --- | --- | --- | --- | --- | --- | --- | --- | --- | --- | --- | --- | --- | --- | --- | --- | --- |
| CC1CCC2C(C)C(Nc3ccccc3)OC3OC4(C)CCC1C32OO4 (stereo not drawn) [Example 15] | 1 | 1 | 0 | 2 (2 = active 1-6 parasites per well) | 2 (2 = active 1-6 parasites per well) | 1 (1 = weakly active up to 1 intact schizont/optical field of vision) | 0 (0 = inactive >1 intact schizont/optical field of vision) | 0.52 ng/mL | 0.66 ng/mL | 0.84 ng/mL | 0.48 ng/mL | 0.61 ng/mL | 0.78 ng/mL |  |  |  |
| CC1CCC2C(C)C(Nc3ccc(Br)cc3)OC3OC4(C)CCC1C32OO4 (stereo not drawn) [Example 18] | 1 | 0 |  | T | T | 1 (1 = weakly active up to 1 intact schizont/optical field of vision) | 0 (0 = inactive >1 intact schizont/optical field of vision) | 0.17 ng/mL | 0.23 ng/mL | 0.33 ng/mL | 0.09 ng/mL | 0.28 ng/mL | 0.82 ng/mL | 2 |  |  |
| CC1CCC2C(C)C(Nc3ccc(I)cc3)OC3OC4(C)CCC1C32OO4 (stereo not drawn) [Example 19] | 0 |  |  | T | T | 1 (1 = weakly active up to 1 intact schizont/optical field of vision) | 0 (0 = inactive >1 intact schizont/optical field of vision) | 0.25 ng/mL | 0.33 ng/mL | 0.43 ng/mL | 0.19 ng/mL | 0.39 ng/mL | 0.80 ng/mL | T |  |  |
| CC1CCC2C(C)C(Nc3ccc(-c4ccccc4)cc3)OC3OC4(C)CCC1C32OO4 (stereo not drawn) [Example 20] | 1 | 1 | 0 | T |  | 0 (0 = inactive >1 intact schizont/optical field of vision) |  | 2.64 ng/mL | 5.81 ng/mL | 12.77 ng/mL | 6.84 ng/mL | 9.40 ng/mL | 12.93 ng/mL |  |  |  |
| CC1CCC2C(C)C(NCc3cc(C(F)(F)F)cc(C(F)(F)F)c3)OC3OC4(C)CCC1C32OO4 (stereo not drawn) [Example 23] | 0 |  |  | T |  | 0 (0 = inactive >1 intact schizont/optical field of vision) |  |  |  |  |  |  |  |  | 0.00; 0.00; AF > 250 ng/ml | 0.00; 0.00; AF > 250 ng/ml |
| CCCNC1OC2OC3(C)CCC4C(C)CCC(C1C)C24OO3 (stereo not drawn) [Example 24] | 0 |  |  | 2 (2 = active 1-6 parasites per well) | 1 (1 = weakly active up to 1 intact schizont/optical field of vision) | 0 (0 = inactive >1 intact schizont/optical field of vision) |  | 0.46 ng/mL | 0.77 ng/mL | 1.30 ng/mL | 0.65 ng/mL | 1.17 ng/mL | 2.10 ng/mL | 1 |  |  |
| CC1CCC2C(C)C(N3CCOCC3)OC3OC4(C)CCC1C32OO4 (stereo not drawn) [Example 25] | 1 | 1 | 0 | 2 (2 = active 1-6 parasites per well) | 1 (1 = weakly active up to 1 intact schizont/optical field of vision) | 1 (1 = weakly active up to 1 intact schizont/optical field of vision) | 0 (0 = inactive >1 intact schizont/optical field of vision) | 0.07 ng/mL | 0.11 ng/mL | 0.17 ng/mL | 0.02 ng/mL | 0.09 ng/mL | 0.35 ng/mL |  |  |  |
